According to patent EP0532512B1, “USE OF PLATELET ACTIVATING FACTOR ANTAGONISTS AS ANTI-PRURITIC AGENTS” (ALLERGAN, INC., priority 1990, dated 1991):
Where a SMILES comes first, the peptide text is derived from it.

Assays:
albino guinea-pig eye = experiment: Pruritogenic activity of autocoids: topical drop to the eye (conjunctiva), scratching episodes counted over 15 minutes; format: in vivo; details: for NO OF SCRATCH EPISODES (X̄ ± SEM): 15 minutes, n=12; for pruritogenic activity (in words): summary of Table 1
Source text: (§1) A more complete appreciation of the invention may be obtained from the following Examples. As a means of providing an atraumatic experimental model of itching, the conjunctiva was used as a convenient tissue site. Pruritogenic agents may be administered to the conjunctiva without the need to traumatize the tissue by injection or scarification. The itch sensation is elicited peripherically by local, atraumatic application of the pruritogen. Of equal importance is the ability of this model to identify locally acting anti-pruritic agents without concerns regarding local tissue trauma or, in the case of systemically administered agents, sedation.
(§2) The pruritogenic activity of numerous and structurally diverse autocoids was examined as follows. A 20 µl drop of a solution of the particular autocoid under evaluation was topically administered to one albino guinea-pig eye, the contralateral eye received 20 µl of vehicle as a control. For PAF studies, the R=15 version of formula I was used and was taken up in 0.5% ultrapure bovine serum albumin. The guinea pig was then replaced in its cage and the number of scratching episodes was recorded over the 15 subsequent minute period. The retention of the experimental animal in familiar surroundings is an important factor in experimental design. Scratching, which is the typical mammalian behavioral response to the itch sensation, provides an indication of the intensity of the perceived itch sensation and can be quantified by recording the frequency at which itch-scratch episodes occur per unit time: 15 minutes in the case of these examples.

[1] = test system: experimental allergic itching; experiment: Experimental allergic itching: conjunctival antigen (chicken ovalbumin) challenge in presensitized animals after pretreatment; format: in vivo; details: n=8-10
Source text: as §1
In addition to pharmacological studies on pruritogenic autocoids, the conjunctiva may be used as a convenient site for modelling diseases where itching is a major symptom. In animals presensitized to a particular antigen, subsequent topical challenge with that antigen results in conjunctival itching. This may be regarded as an experimental model of itching which has general relevance to clinically encountered pruritus. In the studies described herein, chicken ovalbumin was used as an antigenic substance and the ability of PAF antagonist pretreatment to block the itching response was examined (Table 3).

PAF induced pruritus = experiment: Attenuation of PAF induced pruritus by 30 minute topical pretreatment (conjunctival itch-scratch model); format: in vivo, guinea-pig; details: for scratch episodes, TREATED GROUP (mean ± SEM): 30 minute topical pretreatment, n=12
Source text: as §1, §2
The ability of a 30 minute topical pretreatment with selected PAF antagonists to attenuate PAF induced pruritus is shown in Table 2.

[2] = dose 10 μg, 20 µl drop topically to one eye
[3] = dose 100 μg, 20 µl drop topically to one eye

CCCCC/C=C\C/C=C\C/C=C\C=C\C(O)CCCC(=O)O (stereo not shown) [5-Hydroxytetraemoic Acid]
NO OF SCRATCH EPISODES (X̄ ± SEM) (albino guinea-pig eye; [2]): 0.33 ± 0.22

CC(=O)O [10mM ACETIC ACID, ACETIC ACID]
NO OF SCRATCH EPISODES (X̄ ± SEM) (albino guinea-pig eye; pain producing stimulus solution, no dose printed (--)): 0.42 ± 0.19
pruritogenic activity (in words) (albino guinea-pig eye): virtual absence of an itch-scratch response

CCCCC/C=C\CC(O)/C=C/C=C\C/C=C\CCCC(=O)O (stereo not shown) [12-Hydroxytetraemoic Acid]
NO OF SCRATCH EPISODES (X̄ ± SEM) (albino guinea-pig eye; [2]): 0.08 ± 0.08

CCCCCC(O)/C=C/C=C\C/C=C\C/C=C\CCCC(=O)O (stereo not shown) [15-Hydroxytetraemoic Acid]
NO OF SCRATCH EPISODES (X̄ ± SEM) (albino guinea-pig eye; [2]): 0.08 ± 0.08

CCCCCCCCCCCCCCCCCCNC(=O)OCC(COC(=O)N(Cc1cccc[n+]1CC)C(C)=O)OC (stereo not shown) [Compound of formula (II)]
scratch episodes, TREATED GROUP ([1]; 1 mg/ml pretreatment vs 100 µG antigen): 7.62 ± 0.96
scratch episodes, TREATED GROUP (mean ± SEM) (PAF induced pruritus; 10 mg/ml, vs 1 µg PAF): 2.67 ± 0.68
scratch episodes, TREATED GROUP (mean ± SEM) (PAF induced pruritus; 10 mg/ml, vs 10 µg PAF): 6.50 ± 1.09

CC1C(=O)OC2C(O)C34C5CC(C(C)(C)C)C36C(OC(=O)C6O)OC4(C(=O)O5)C12O (stereo not shown) [Compound of formula (III), Ginkgolide B]
scratch episodes, TREATED GROUP ([1]; 10 mg/ml pretreatment vs 100 µG antigen): 6.87 ± 1.61
scratch episodes, TREATED GROUP (mean ± SEM) (PAF induced pruritus; 10 mg/ml, vs 10 µg PAF): 8.42 ± 1.37

Cc1nnc2n1-c1sc(CCC(=O)N3CCOCC3)cc1C(c1ccccc1Cl)=NC2 [Compound of formula (IV)]
scratch episodes, TREATED GROUP ([1]; 10 mg/ml pretreatment vs 10 µG antigen): 5.00 ± 1.10
scratch episodes, TREATED GROUP (mean ± SEM) (PAF induced pruritus; 5 mg/ml, vs 1 µg PAF): 0.33 ± 0.19
scratch episodes, TREATED GROUP (mean ± SEM) (PAF induced pruritus; 5 mg/ml, vs 10 µg PAF): 5.25 ± 0.98

C[C@H](N)C(=O)NCC(=O)N[C@@H](CO)C(=O)N[C@@H](CCC(=O)O)C(=O)O [L-alanylglycyl-L-seryl-L-glutamic acid] (H-AGSE-OH)
NO OF SCRATCH EPISODES (X̄ ± SEM) (albino guinea-pig eye; dose 1000 μg, 20 µl drop topically to one eye): 1.42 ± 0.47

CC(C)[C@H](N)C(=O)NCC(=O)N[C@@H](CC(=O)O)C(=O)N[C@@H](CCC(=O)O)C(=O)O [L-valylglycyl-L-aspartyl-L-glutamic acid] (H-VGDE-OH)
NO OF SCRATCH EPISODES (X̄ ± SEM) (albino guinea-pig eye; [3]): 0.92 ± 0.26

CCCCC/C=C\C[C@@H](O)/C=C/C=C/C=C\[C@@H](O)CCCC(=O)O [LEUKOTRIENE B4]
NO OF SCRATCH EPISODES (X̄ ± SEM) (albino guinea-pig eye; [2]): 0.42 ± 0.23

CCCCC/C=C\C\C=C/C=C/C=C/[C@@H](SC[C@H](NC(=O)CC[C@H](N)C(=O)O)C(=O)NCC(=O)O)[C@@H](O)CCCC(=O)O [LEUKOTRIENE C4]
NO OF SCRATCH EPISODES (X̄ ± SEM) (albino guinea-pig eye; [2]): 0.58 ± 0.36

CCCCCCCCCCCCCCCCOC[C@@H](O)COP(=O)([O-])OCC[N+](C)(C)C [LYSO-PAF]
NO OF SCRATCH EPISODES (X̄ ± SEM) (albino guinea-pig eye; dose 1 μg, 20 µl drop topically to one eye): 0.92 ± 0.26
NO OF SCRATCH EPISODES (X̄ ± SEM) (albino guinea-pig eye; [2]): 2.67 ± 0.73
NO OF SCRATCH EPISODES (X̄ ± SEM) (albino guinea-pig eye; [3]): 13.0 ± 1.58
pruritogenic activity (in words) (albino guinea-pig eye): relatively weak activity

CCCCCCCCCCCCCCCCOCC(COP(=O)([O-])OCC[N+](C)(C)C)OC(C)=O (stereo not shown) [PAF, 1-O-alkyl-2-acetyl-sn-glycero-3-phosphocholine]
pruritogenic activity (in words) (albino guinea-pig eye): most potent pruritogenic agent

CCCCC[C@H](O)/C=C/[C@@H]1[C@@H](C/C=C\CCCC(=O)O)[C@@H](O)C[C@H]1O [PROSTAGLANDIN F2α]
NO OF SCRATCH EPISODES (X̄ ± SEM) (albino guinea-pig eye; [3]): 1.75 ± 0.37

COc1ccc(CN(CCN(C)C)c2ccccn2)cc1 [Pyrilamine]
scratch episodes, TREATED GROUP (mean ± SEM) (PAF induced pruritus; 0.1 mg/ml, vs 1 µg PAF): 4.17 ± 0.91
scratch episodes, TREATED GROUP (mean ± SEM) (PAF induced pruritus; 0.1 mg/ml, vs 10 µg PAF): 14.25 ± 1.75
block of PAF induced pruritus (in words) (PAF induced pruritus; summary of Table 2): not

Bradykinin (RPPGFSPFR; Bradykinin; UniProt P01042 381-389, looked up)
NO OF SCRATCH EPISODES (X̄ ± SEM) (albino guinea-pig eye; [2]): 0.50 ± 0.23
NO OF SCRATCH EPISODES (X̄ ± SEM) (albino guinea-pig eye; [3]): 4.00 ± 0.90
